From ChEMBL document CHEMBL5131523, “Long-Awaited Small-Molecule Drug Candidate for Drugging the Next Undruggable KRASG12D Mutant in Cancer Therapy” (ACS Med Chem Lett, 2022) come the findings set out here.

This experiment has as its system BaF3. Put plainly: Antiproliferative activity against mouse BaF3 cells harboring KRAS G12D mutant assessed as inhibition of cell proliferation incubated for 3 days by CellTiter-Glo assay. It is filed as toxicity, cell-based. The following applies: BaF3, 72 h.

For `Oc1cc(-c2nc(Cl)c3c(N4C[C@H]5CC[C@@H](C4)N5)nc(OC[C@@]45CCCN4C[C@H](F)C5)nc3c2F)c2ccccc2c1`, the IC50 (usually the point on the concentration scale where inhibition reaches its midpoint) was no more than 500 nM. Under `Oc1cc(-c2nc(O)c3c(N4C[C@H]5CC[C@@H](C4)N5)nc(OC[C@@]45CCCN4C[C@H](F)C5)nc3c2F)c2c(Cl)c(F)ccc2c1` stands 500 nM; under `C#Cc1c(F)ccc2cc(O)cc(-c3nc(OCC(F)F)c4c(N5C[C@H]6CC[C@@H](C5)N6)nc(OC[C@@]56CCCN5C[C@H](F)C6)nc4c3F)c12`, no more than 500 nM; under `C#Cc1c(F)ccc2cc(O)cc(-c3nc(OC(F)F)c4c(N5C[C@H]6CC[C@@H](C5)N6)nc(OC[C@@]56CCCN5C[C@H](F)C6)nc4c3F)c12`, no more than 500 nM. With `CCOc1nc(-c2cc(O)cc3ccc(F)c(Cl)c23)c(F)c2nc(OC[C@@]34CCCN3C[C@H](F)C4)nc(N3C[C@H]4CC[C@@H](C3)N4)c12` the figure was no more than 500 nM. Take `C#Cc1c(F)ccc2cc(O)cc(-c3nc(OC(C)C)c4c(N5C[C@H]6CC[C@@H](C5)N6)nc(OC[C@@]56CCCN5C[C@H](F)C6)nc4c3F)c12`: the IC50 is no more than 500 nM. With `C#Cc1c(F)ccc2cc(O)cc(-c3nc(OC(C)C)c4c(N5C[C@H]6CC[C@@H](C5)N6)nc(C(F)F)nc4c3F)c12` the figure was no more than 500 nM; with `C#Cc1c(F)ccc2cc(O)cc(-c3nc(OC(C)C)c4c(N5C[C@H]6CC[C@@H](C5)N6)nc(NC)nc4c3F)c12`, 500 nM.

`Fc1c(-c2cccc3cccc(Cl)c23)ncc2c(N3C[C@H]4CC[C@@H](C3)N4)nc(OCC34CCCN3CCC4)nc12`: the IC50 is no more than 500 nM.

In the case of `C#Cc1c(F)ccc2cc(O)cc(-c3nc(OCC)c4c(N5CCNC6(CCC6)C5)nc(OC[C@@]56CCCN5C[C@H](F)C6)nc4c3F)c12`, the IC50 was no more than 500 nM. Take `Cc1nc(-c2cc(O)cc3cccc(Cl)c23)c(F)c2nc(OC[C@@]34CCCN3C[C@H](F)C4)nc(N3C[C@H]4CC[C@@H](C3)N4)c12`: the IC50 is no more than 500 nM. Consider `Cc1cccc2cc(O)cc(-c3nc(C)c4c(N5C[C@H]6CC[C@@H](C5)N6)nc(OC[C@@]56CCCN5C[C@H](F)C6)nc4c3F)c12`, for which the IC50 was no more than 500 nM.
